Where “and” joins values, the source holds several entries; their conditions need not be identical. Equal values may be shown once.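 A five-concentration, 48-hour dose response in 96-well plates underlies each endpoint, interpolated linearly between surrounding concentrations. GI50 is the concentration that inhibits growth by half. At the TGI there is no net growth.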
Test system: MDA-MB-468 breast
Test: inhibition of tumour cell growth, NCI panel, 48 h

| Structure (SMILES) | GI50 | TGI |
| --- | --- | --- |
| COc1cc(Nc2cc(O)c3c(=O)cc(-c4ccccc4)oc3c2)cc(OC)c1 | 279 nM | – |
| COc1cc(/C=C/c2cc(/C=C/c3ccc(O)c(OC)c3)n(C(=O)Cc3ccccc3)n2)ccc1O | 1170 nM | 4580 nM |
| COc1cc(C=C2c3ccccc3C(=O)c3ccccc32)ccc1OCCCCOc1cc2c(cc1OC)C(=O)N1CCCC1C=N2 (centres undefined) | 287 nM | 1190 nM |
| O=C(/C=C/c1c(-c2ccccc2)[nH]c2ccccc12)S(=O)(=O)c1ccccc1 | 1980 nM | 8750 nM |
| CC(c1ccccc1)N1C(=O)CSC1=S (centres undefined) | 303 nM | > 100000 nM |
| O=C(c1ccc(Oc2ccccc2)cc1Cl)c1c[nH]c2ncnc(N[C@@H]3CC[C@@H](CO)OC3)c12 | 1010 nM | 3730 nM |
| Cn1cc(-c2csc(-c3c[nH]c4ccc(F)cc34)n2)c2cccnc21 | 1410 nM | 5240 nM |
| NCCCNc1nc2ccccc2c2c(=O)c3cccc(F)c3sc12 | 1620 nM | 3240 nM |
| COc1cc2c(Oc3ccc4[nH]c(C)cc4c3F)ncnc2cc1OCCCN1CCCC1 | 1320 nM | 3060 nM |
| COc1cc(/C=C/c2cc(/C=C/c3ccc(O)c(OC)c3)n(C(N)=O)n2)ccc1O | 298 nM | 1520 nM |
| COc1cc(/C=C/[N+](=O)[O-])c([N+](=O)[O-])cc1OC | 1020 nM | 2300 nM |
| COC1=C(C)C(=O)N2[C@@H]1[C@H](c1ccccc1)OC21C=CC(=O)C=C1 | 2540 nM | 9240 nM |
| Cn1c([N+](=O)[O-])cnc1/C=C1\Oc2ccc(Br)cc2C1=O | 1590 nM | 4600 nM |
| CCOC(=O)c1cc(C(=O)c2cc(OC)cc(OC)c2)n2nc(C)ccc12 | 297 nM | > 100000 nM |
| Cc1ccc(N(CC(=O)Nc2ccc(S(=O)(=O)NC3CCN(C)CC3)cc2)S(=O)(=O)c2ccc(Cl)cc2)cc1 | 1910 nM | 4000 nM |
| O=[N+]([O-])c1cc([N+](=O)[O-])c(NN=C(c2ccc(O)cc2)c2ccc(O)cc2)cc1Cl | 247 nM | 550 nM |
| COc1cc(C2CC(c3ccc(SC)cc3)=NN2C(C)=O)cc(OC)c1OC (centres undefined) | 3710 nM | 26200 nM |
| CO[C@H]1/C=C/[C@@](C)(O)/C=C/C(=O)O[C@H](C)[C@@H](C)CC/C=C/1C | 8450 nM | 31000 nM |
| CCCCc1ccc(NS(=O)(=O)c2cc3c4c(c2)CCN4C(=O)CC3)cc1 | 4500 nM | 94200 nM |
| COc1ccc(-c2cc(C(=O)N3N=C(c4ccc(N)cc4)CC3c3ccc(Cl)cc3)c3ccccc3n2)cc1 (centres undefined) | 2950 nM | > 100000 nM |
| CO[C@@H](C)Cn1c(=O)n(C)c2cnc3ccc(-c4cncc(C(C)(C)O)c4)cc3c21 | 132 nM and 60.1 nM | 661 nM and 472 nM |
| O=C1NC(=O)/C(=C/c2ccc3ncccc3c2)S1 | 9280 nM | > 25000 nM |
| COc1ccc(/C=C/C(=O)c2c(O)c(C)c(O)c3c2OC2=CC(O)=C(C(C)=O)C(=O)[C@]23C)cc1 | 1350 nM | 5010 nM |
| CN(C)CCCNc1nc2ccccc2c2c(=O)c3cc(F)ccc3sc12 | 675 nM | 2160 nM |
| Oc1ccc(OCCOc2ccc(O)cc2)cc1 | 32700 nM | > 100000 nM |
| O=C1C(=O)/C(=C/c2ccccc2)CCCCCC/C1=C/c1ccccc1 | 3620 nM | 17700 nM |
| CCC(=O)OCC1OC(n2cnc3c(=S)nc(N)[nH]c32)C(OC(=O)CC)C1OC(=O)CC (centres undefined) | 1180 nM | 7450 nM |
| Cc1ccc(NC(=O)c2ccc(CN3CC[C@H](N(C)C)C3)c(C(F)(F)F)c2)cc1Nc1nccc(-c2cncnc2)n1 | 5050 nM and 7370 nM | 18400 nM and > 10000 nM |
| Fc1ccc(-c2cc3nc(C(Cl)Cl)nc(-c4cccs4)n3n2)cc1 | 219 nM | 666 nM |
| COc1cc(C(=O)/C=C/c2c(-c3cccs3)nc3sccn23)cc(OC)c1OC | 930 nM | 2890 nM |
